According to article PMC3158555, “Cofactor-mediated conformational control in the bifunctional kinase/RNase Ire1” (BMC Biology, 2011):

Target: T1, Ire1KR32 (cytosolic kinase/RNase portion of Ire1) (Saccharomyces cerevisiae, UniProt P32361)
T1 construct: cytoplasmic kinase + RNase domains with N-terminal 32-aa extension from the linker to the transmembrane segment; GST fusion (pGEX-6P-2) in E. coli, GST cleaved by PreScission; autophosphorylated (~20 phosphates); homo-oligomerizes
T1 sequence (P32361 641-1115): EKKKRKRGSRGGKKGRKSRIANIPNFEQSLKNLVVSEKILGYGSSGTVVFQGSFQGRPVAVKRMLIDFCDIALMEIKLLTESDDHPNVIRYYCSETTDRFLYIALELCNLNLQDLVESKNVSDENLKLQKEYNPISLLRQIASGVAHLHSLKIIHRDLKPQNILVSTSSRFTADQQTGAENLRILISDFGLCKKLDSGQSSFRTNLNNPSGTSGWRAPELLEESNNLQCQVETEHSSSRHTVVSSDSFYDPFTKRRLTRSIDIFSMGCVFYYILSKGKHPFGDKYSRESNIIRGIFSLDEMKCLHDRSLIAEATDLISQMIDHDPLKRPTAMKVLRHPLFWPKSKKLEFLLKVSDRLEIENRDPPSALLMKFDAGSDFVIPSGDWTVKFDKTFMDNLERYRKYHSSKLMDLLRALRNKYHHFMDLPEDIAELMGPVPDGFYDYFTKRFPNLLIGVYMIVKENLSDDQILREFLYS
Experiment: RNase activation, hyperbolic fit of kobs versus cofactor ([…]P-RNA hairpin)
Format: biochemical
Conditions: 3 µM Ire1KR32, 2 mM Mg2+, pH 7.4, 30 °C; allosteric activator in kinase ATP pocket

Compound | Kcof (apparent cofactor binding constant)
Nc1ncnc2c1ncn2[C@@H]1O[C@H](COP(=O)(O)OP(=O)(O)OP(=O)(O)O)[C@@H](O)[C@H]1O [ATP] | the apparent affinity for AMP was tenfold lower than that observed for ATP
c1cc(Nc2cc(C3CC3)[nH]n2)nc(Nc2ccc3[nH]cnc3c2)n1 [APY29] | APY24 and APY29 activated Ire1 as well as or better than ADP
Nc1ncnc2c1ncn2[C@@H]1O[C@H](COP(=O)(O)OP(=O)(O)OP(O)(O)=S)[C@@H](O)[C@H]1O [ATPγS] | ATPγS bound to Ire1 slightly more weakly than ATP
CCN(CC)CCNC(=O)c1c(C)[nH]c(/C=C2\C(=O)Nc3ccc(F)cc32)c1C [sunitinib] | activated Ire1KR32 to a similar extent as AMP and ATP
Nc1ncnc2c1ncn2[C@@H]1O[C@H](COP(=O)(O)O)[C@@H](O)[C@H]1O [AMP] | the apparent affinity for AMP was tenfold lower than that observed for ATP
Nc1ncnc2c1ncn2[C@@H]1O[C@H](COP(=O)(O)OP(=O)(O)O)[C@@H](O)[C@H]1O [ADP] | ADP bound with an apparent affinity similar to that of ATP

Target: T1, Ire1KR32 (cytosolic kinase/RNase portion of Ire1)
Experiment: inhibition of ADP-stimulated RNase cleavage of […]-RNA hairpin
Format: biochemical
Conditions: competition with 0.2 mM ADP, 3 µM Ire1KR32, 2 mM Mg2+, pH 7.4, 30 °C; kinase ATP pocket; paper prints mmol for mM

Ki [mM] | Compound
0.2 ± 0.07 | Nc1ncnc2c1ncn2[C@@H]1O[C@H](COP(=O)(O)OP(=O)(O)S)[C@@H](O)[C@H]1O (some centres unmarked) [ADPβS]
0.1 ± 0.04 | Nc1ncnc2c1ncn2[C@@H]1O[C@H](COP(=O)(O)OP(=O)(O)OP(=O)(O)O)[C@@H](O)[C@H]1O [ATP]
